What was measured:
[1] = system: tumor derived from LGR5-iCT organoid; assay: Tumor size of LGR5-iCT organoid xenograft measured regularly; assay type: in vivo, NOG mice
Protocol: The LGR5-iCT organoid was xenografted under the renal capsule of NOG mice (7-12 weeks old, male) by the same method as Experimental Example 2. Subsequently, after a tumor was formed, the AP20187 was administered to mice daily for 5 days. In addition, control mice to which only a solvent was administered daily for 5 days. Thereafter, a tumor size of each mouse was measured regularly.
In addition, FIG. 6 is a graph showing a result obtained by measuring the size of a tumor of each of a mouse (Dimerizer) to which the AP20187 is administered and the control mouse (Vehicle), regularly. As a result, it was confirmed that the tumor size was reduced by the administration of the AP20187.
In addition, the inventors examined the expression of the LGR5 gene in the tumor tissue after the administration of the AP20187. […] In addition, it was also clear that a re-increase of the tumor size corresponds to re-expression of the LGR5 gene.

[2] = system: LGR5-positive cancer stem cell; assay: Tumor tissue sections of LGR5-iCT organoid xenograft (tdTomato fluorescence, KRT20 immunostaining); assay type: in vivo, NOG mice; details: tumor section on the 5th day from start of administration, daily for 5 days
Excerpt: First, an IRES-iCaspase9-T2A-tdTomato construct was introduced into the LGR5 gene locus of the cultured organoid derived from colon cancer by the same method as in Experimental Example 1. Hereinafter, these organoids may be referred to as “LGR5-iCT organoids” in some cases.
iCaspase 9 is a drug-induced suicide gene. The iCaspase 9 has no activity in a monomer, but forms a dimer in the presence of AP20187 (dimerizer, APExBIO) to induce apoptosis. Also, TdTomato is a kind of red fluorescent protein (RFP).
FIG. 4 is a diagram illustrating a structure of the completed LGR5 gene locus and behavior of the drug-induced suicide gene. […] Therefore, it is possible to confirm the presence of the LGR5-positive cell by observing the fluorescence of the tdTomato. […] As a result, the fluorescence of the tdTomato becomes not observed.
The LGR5-iCT organoid was xenografted under the renal capsule of NOG mice (7-12 weeks old, male) by the same method as Experimental Example 2. […] Thereafter, a tumor size of each mouse was measured regularly.
FIGS. 5 (a) and 5(b) show fluorescence micrographs of a result obtained by extracting a tumor of each mouse on the 5th day from the start of administration of the AP20187 to prepare a tissue section and detecting the fluorescence of the tdTomato and KRT20 as a differentiation marker by immunostaining. […]

cancer stem cell = assay: LGR5-iCT/CMV-GFP organoid screening, tdTomato fluorescence; assay type: cell-based, human; details: final concentration shown in FIG. 8; DMSO control
Excerpt: In addition, Irinotecan, Cetuximab, and Oxaliplatin are existing anticancer drugs. In addition, “DMSO” refers to dimethyl sulfoxide added to the medium instead of the anticancer drug as a control.

cancer cell = assay: LGR5-iCT/CMV-GFP organoid screening, GFP fluorescence; assay type: cell-based, human; details: final concentration shown in FIG. 8; DMSO control
Excerpt: A CMV-GFP construct was further introduced into the LGR5-iCT organoid prepared in Experimental Example 4. In the CMV-GFP construct, a GFP gene was linked downstream of the CMV promoter, which is the forced expression promoter. Therefore, regardless of whether or not the LGR5 gene was expressed, the GFP gene was expressed in all cells and emitted fluorescence of the GFP protein. Hereinafter, these organoids may be referred to as “LGR5-iCT/CMV-GFP organoids” in some cases.
In the LGR5-iCT/CMV-GFP organoid, survival activity of the cancer cell can be observed by fluorescence of GFP, and survival activity of the cancer stem cell can be observed by fluorescence of tdTomato.
Using the LGR5-iCT/CMV-GFP organoid, high-throughput screening of existing anticancer drugs used for the treatment of colon cancer was performed, and the effects on the cancer cells and the cancer stem cells were examined.
FIG. 8 is a micrograph of an organoid showing a typical result. In FIG. 8, “BRIGHT FIELD” indicates a bright field observation image. “CMV-GFP” indicates a fluorescence micrograph obtained by observing GFP fluorescence”. “LGR5-tdTomato” indicates a fluorescence micrograph obtained by observing tdTomato fluorescence. “Merge” indicates the result obtained by synthesizing the bright-field observation image, the GFP fluorescence micrograph, and the micrograph of tdTomato fluorescence. […]

SMILES	tumor size ([1]; after administration daily for 5 days)	tumor growth ([1]; continuous cancer stem cell treatment, tumor not completely cured)	expression of the LGR5 gene in the tumor tissue after administration ([1]; expression once disappeared, corresponds to re-increase of tumor size)	tumor size, eventually ([1]; later after the end of the 5-day administration)	effect on LGR5-negative cell [2]	effect on LGR5-positive cancer stem cell (apoptosis) [2]	effect against the cancer stem cell (tdTomato fluorescence) (cancer stem cell)	effect against the cancer cell (GFP fluorescence) (cancer cell)
CC[C@H](C(=O)N1CCCC[C@H]1C(=O)O[C@H](CCc1ccc(OC)c(OC)c1)c1cccc(OCC(=O)NCC(CNC(=O)COc2cccc([C@@H](CCc3ccc(OC)c(OC)c3)OC(=O)[C@@H]3CCCCN3C(=O)[C@@H](CC)c3cc(OC)c(OC)c(OC)c3)c2)CN(C)C)c1)c1cc(OC)c(OC)c(OC)c1 [AP20187]	reduced	could suppress tumor growth	recognized again	increased again	remained intact	completely died	–	–
CCc1c2c(nc3ccc(OC(=O)N4CCC(N5CCCCC5)CC4)cc13)-c1cc3c(c(=O)n1C2)COC(=O)[C@]3(O)CC [irinotecan]	–	–	–	–	–	–	not effective	showed a growth suppression effect
O=C1[O][Pt]2([NH][C@@H]3CCCC[C@H]3[NH]2)[O]C1=O [oxaliplatin]	–	–	–	–	–	–	kills	kills

Reference: US11698366B2, “Human tissue stem cell and use thereof” (KEIO UNIVERSITY, priority 2017, dated 2023)
